One data set deals with MLV-neo. Kind of data set: MLV-neo colony formation in the presence of antiviral agents. Type of data set: cell-based, Moloney Leukemia virus. Conditions: Hela-T4, AZT 10 uM, DDI 50 uM, DDC 10 uM, D4T 50 uM, control 9050. As to the method: Production of recombinant HIV-gpt has been described elsewhere (26). The amphotropic cell line PA317 was transfected with the recombinant murine retrovirus pLXSN (36) and was used as the source of the recombinant MLV-neo virus. Stock preparations of HIV-1IIIB were harvested from H9 cells by the “shake off method” (13). Stock virus infectivity was determined by end-point dilution in MT-2 cells (32). Virus induced cytopathic effect was scored 7 days post-infection and the TCID50 was calculated with the Reed and Muench equation (33).
To confirm this high rate of infection in the absence of genetic drug resistance, we used several other recombinant viruses and host cells. […] A high rate of infection of Jurkat cells in the presence of d4T has also been seen.
Table 5. HIV-gpt produced in COS cells by transfection with plasmids (plasmid derived) is compared with HIV-gpt produced by, rescue from H9/HIV-gpt cell line after infection with HIV-IIIB and cells infected with MLV-neo.
(§1) Table 6. Colony formation and persistent resistance after Hela-T4 cell infection with MLV-neo virus in the presence and absence of various antiviral agents.

The next data set deals with HIV-LacZ. In kind it is cell-based. The note with it: for cross resistance of cell lines “persistently resistant” to AZT to other nucleoside analogs: d4T at 50 μM.
In data set [1] the test system is recombinant HIV, recombinant MLV, or replication-competent HIV. Type of data set: cell-based. Conditions: Hela-T4, MLV-neo; for No. of persistently resistant colonies: AZT 10 uM, DDI 50 uM, DDC 10 uM, D4T 50 uM, resistant/tested; for Frequency: frequency of persistently resistant colonies.
From the text: The presence of a selectable marker gene in the recombinant HIV allowed the isolation of cells infected by the recombinant viruses in the presence of d4T. These cells were characterized by infection with both additional recombinant viruses and by replication-competent viruses.
as §1

Data set [2] in a line: HPLC analysis of phosphorylated AZT metabolites in clones incubated with 3H-AZT. Type of data set: in vitro ADME. The method, then:
Cell lines were incubated with ^3H-thymidine or ^3H-AZT for 4 hours. Dried methanol extracts of the clones were redissolved in 60 μof distilled water and centrifuged to remove undissolved material. Twenty microliters of the sample was injected and separated on a 10×100 mm Rainin Hydropore anion exchange column. The nucleosides were eluted from the column with a linear gradient of potassium phosphate (5 mM to 1 M, pH4.0) at a flow rate of 1 ml/min. The samples were collected (0.5 ml), mixed with 5 ml Packard scintillation fluid, and quantitated using a liquid scintillation counter. Phosphorylated derivatives of thymidine and AZT were identified with authentic standards.
Pool sizes were determined by incubation of cells with ^3H-AZT for 4 hours followed by cellular extraction and HPLC. The numbers are expressed as pmoles/10^6 cells. The numbers in parentheses represent the percentage of total radioactive species in that pool.

The subject of the next data set is HIV-gpt. The data set is described as follows: HIV-gpt colony formation after infection of HeLa-T4 cells in the presence of antiretroviral agents. Type of data set: cell-based. Conditions: HeLa-T4; plasmid derived HIV-gpt (COS cells); AZT 10 μM, DDI 50 μM, D4T 50 μM; no drug control 8800.
[3] abbreviates: S1 (sensitive) cell line, 3H-AZT for 4 hours, HPLC.
[4] abbreviates: R116 (“persistently resistant”) cell line, 3H-AZT for 4 hours, HPLC.

For the molecule `Nc1ccn([C@H]2CC[C@@H](CO)O2)c(=O)n1` [DDC], in the data set on MLV-neo, the No. of colonies worked out at 17. Also, in the data set on HIV-LacZ, the “cross resistance of cell lines “persistently resistant” to AZT to other nucleoside analogs” value was “None of the “persistently resistant” cell lines were cross “resistant””. Besides, in data set [1], the “No. of persistently resistant colonies” value is 2/17 and the Frequency is 2.2 × 10^−4.
Regarding `Cc1cn([C@H]2C[C@H](N=[N+]=[N-])[C@@H](CO[P@](=O)(O)O[P@](=O)(O)OP(=O)(O)O)O2)c(=O)[nH]c1=O` [AZTTP, 3′-azido-3′-deoxythymidine triphosphate], the “reduction in AZTTP in R116 cells compared to S1 cells” value in data set [2] (3H-AZT incubation) is reported as around 2 fold. Besides, in data set [2] (setting [3]), the concentration in cells is 0.0158 pmoles/10^6 cells and the “percentage of total radioactive species in that pool” value (from here on “percentage”) worked out at 9.3%. Also, in data set [2] (human, 4 h), the concentration in cells was 0.0083 pmoles/10^6 cells and the “percentage” value is recorded as 4.2%.
For `Cc1cn([C@H]2C[C@H](N=[N+]=[N-])[C@@H](COP(=O)(O)OP(=O)(O)O)O2)c(=O)[nH]c1=O` [AZTDP, 3′-azido-3′-deoxythymidine diphosphate], in data set [2] (setting [3]), the concentration in cells is 0.0116 pmoles/10^6 cells and the “percentage” value is recorded as 6.9%. In data set [2] (human, 4 h), the concentration in cells is listed as 0.0193 pmoles/10^6 cells and the “percentage” value is listed as 9.6%.
Regarding `O=c1[nH]cnc2c1ncn2[C@H]1CC[C@@H](CO)O1` [DDI], in the data set with MLV-neo, the No. of colonies was 19. For the same molecule, the “Number of “persistently resistance” colonies” value in the data set on HIV-LacZ (colonies from HIV-gpt infection of HeLa-T4 in presence of drug, resistant/tested) was 2/16. The “cross resistance of cell lines “persistently resistant” to AZT to other nucleoside analogs” value in the data set with HIV-LacZ is listed as “None of the “persistently resistant” cell lines were cross “resistant””. Moreover, in the data set with HIV-LacZ (frequency of persistently resistant colonies, HeLa-T4, plasmid derived HIV-gpt), the Frequency is on record as 2.3 × 10^−4. For the same molecule, in data set [1], the “No. of persistently resistant colonies” value was 4/19 and the Frequency is recorded as 4.4 × 10^−4. Besides, the Number of colonies with HIV-gpt turned out to be 16.
Consider `Cc1cn([C@H]2C[C@H](N=[N+]=[N-])[C@@H](COP(=O)(O)O)O2)c(=O)[nH]c1=O` [AZTMP, 3′-azido-3′-deoxythymidine monophosphate], for which the figures for the concentration in cells in data set [2] (setting [4]) and in data set [2] (setting [3]) were 0.1575 pmoles/10^6 cells and 0.1212 pmoles/10^6 cells, respectively. In addition, the figures for the “percentage” value in data set [2] (setting [4]) and in data set [2] (setting [3]) were 78.6% and 71.6%, respectively.

The values are drawn from patent publication US6576622B1, “Drug combination for the treatment of viral diseases” (University of Medicine & Dentistry of New Jersey, priority 1995, dated 2003).
